Earlier results, collected in patent publication US20040248932A1, “Use of aryl- and heteroaryl-substituted tetrahydroisoquinolines in the treatment of chronic and neuropathic pain, migraine headaches, and urge, stress and mixed urinary incontinence” (priority 2002, published 2004).

Details: nocturnal enuresis, following treatment

Structure (SMILES): CN(C)CCCN1c2ccccc2CCc2ccccc21 [imipramine, Imipramine]
- further patients in whom improvements can be seen: 15-20%
- patients in whom enuresis can be cured: over 50%
